One compound from article PMC11239830, “Synthetic macrolides overcoming MLSBK-resistant pathogens” (Cell Discovery, 2024) can be followed below.

This series can be described thus: In vivo pharmacokinetic study. Also noted: species or system SD rats. Conditions: SD (Sprague-Dawley), rat, iv, plasma. As to the method:
The SD rats were fasted overnight and dosed i.v. at a dose of 5 mg/kg in a solution of DMSO/PEG 400/water (5%/24%/71%). The whole blood was collected into tubes containing sodium heparin at 0.083 h, 0.25 h, 0.5 h, 1 h, 2 h, 4 h, 8 h and 24 h after dosing. After centrifugation of 6000 rpm for 10 min at 4 °C, plasma samples were transferred into 1.5 mL tubes and stored at –20 °C. Prior to analysis, the samples were thawed on ice. An amount of 50 μL of each plasma sample was added to a mixture of 50 μL of propranolol (300 ng/mL) and 100 μL of acetonitrile and centrifuged at 12,000 rpm at 4 °C for 10 min. The supernatant was diluted and analyzed by LC-MS/MS. The liquid chromatography was conducted on a Thermo Scientific Q Exactive HF-X (ThermoFisher Scientific, USA) instrument, employing an ACQUITY UPLC BEH C18 Column with dimensions of 130 Å, 1.7 µm, 2.1 mm × 100 mm. The liquid phase method employed gradient elution with mobile phases consisting of acetonitrile and an 0.1% aqueous formic acid solution. Mass spectrometry was conducted in positive ion mode. The quantification of drug concentration in plasma samples was performed using the internal standard method, and the obtained pharmacokinetic parameters were calculated using Phoenix WinNonlin software.

Regarding `CC[C@H]1OC(=O)[C@H](C)[C@@H](OC(=O)NCCCCCCC#Cc2ccc3c(=O)c(C(=O)O)cn(C)c3c2)[C@H](C)[C@@H](O[C@@H]2O[C@H](C)C[C@H](N(C)C)[C@H]2O)[C@](C)(OC)C[C@@H](C)C(=O)[C@H](C)[C@H]2NC(=O)O[C@@]21C` [MCX-219], under “male SD rats, i.v. 5 mg/kg”, the maximum concentration (Cmax) came out at 15000 ± 2810 ng/mL, the MRT was found to be 1.13 ± 0.0139 h, the Tmax came to 4.8 min and the half-life is 3.92 ± 0.117 h. Under “male SD rats, i.v. 5 mg/kg, mean ± SD, n 3”, this compound registered an AUC(0-inf) of 7090 ± 1360 ng·h/mL. The AUC(0-t) (male SD rats, i.v. 5 mg/kg, read-out: AUC0-24) was 7080 ± 1360 ng·h/mL. The clearance (male, 5 mg/kg) was 12.2 mL/min/kg.

For orientation: Cmax means the maximum level reached in the sampled fluid or tissue. By MRT is commonly meant the average time that molecules of a dose stay in the body. As a reminder, the Tmax is the time at which the peak concentration occurs. As usually defined, the half-life is the time needed for the level to fall by half in the phase considered. As usually defined, the AUC(0-inf) is the area under the concentration-time curve extrapolated to infinity. A higher AUC(0-inf) goes with high exposure. The term clearance denotes the rate of elimination divided by the concentration. A lower clearance goes with inefficient removal.
